The values that follow come from ChEMBL document CHEMBL4321836, “Discovery of BAY-298 and BAY-899: Tetrahydro-1,6-naphthyridine-Based, Potent, and Selective Antagonists of the Luteinizing Hormone Receptor Which Reduce Sex Hormone Levels in Vivo” (J Med Chem, 2019).

pIC50: −log10 of the molar value. Activity calls are given as the source filed them. Some results are limits rather than exact numbers.

For one series, the target named is Cytochrome P450 1A2 (Homo sapiens, UniProt P05177). Nature of the series: Inhibition of CYP1A2 in human liver microsomes using phenacetin as substrate by LC-MS/MS analysis. The class given is ADME. (In general: Liver microsomes are vesicles of endoplasmic reticulum, rich in cytochrome P450 enzymes.)
Series [1] relates to Rattus norvegicus. The series can be described thus: Induction of long-term effect on estrus cycle in 4 day cycle of normally cycling female rat assessed as changes in vaginal smears at 12.5 mg/kg, po administered once daily for 8 days. The class given is functional, organism-based.
The nature of series [2]: Dose normalized AUC in Wistar rat at 0.5 mg/kg, iv after 2 to 72 hrs by LC-MS/MS analysis. It counts as ADME, organism-based. The settings on record: in vivo.
Series [3] in a line: Half life in Wistar rat at 2 mg/kg, po after 8 to 72 hrs by LC-MS/MS analysis. It counts as ADME, organism-based. As to conditions: in vivo.
For series [4], the target named is Beta-1 adrenergic receptor (Homo sapiens) (UniProt P08588). The series can be described thus: Agonist activity at human beta1 adrenergic receptor expressed in HEK293 cells at 10 uM after 30 mins HTRF assay relative to control. The class given is cell-based. In general terms: Time-resolved FRET reads energy transfer from a long-lived donor to a nearby acceptor.

The target in a further series is Cytochrome P450 2C8 (Homo sapiens, UniProt P10632). Nature of the series: Inhibition of CYP2C8 in human liver microsomes using amodiaquine as substrate by LC-MS/MS analysis. It counts as ADME.
Series [5] is described as follows: Apparent permeability across apical to basolateral side in human Caco2 cells at 2 uM after 2 hrs by LC-MS/MS analysis. As to conditions: Caco-2. It counts as ADME, cell-based. Background: Caco-2 cells form a polarised layer with tight junctions and transporters.
Series [6] concerns the target 5-hydroxytryptamine receptor 2B (Homo sapiens) (UniProt P41595). The series can be described thus: Antagonist activity at human 5-HT2B receptor expressed in CHO-K1 cells at 10 uM after 30 mins by HTRF assay relative to control. It counts as cell-based. More on the design: scale not given: the % may be the effect or the level left.
The nature of series [7]: Dose normalized AUC in Wistar rat at 2 mg/kg, po after 8 to 72 hrs by LC-MS/MS analysis. It counts as ADME, organism-based. As to conditions: in vivo.
The test system of series [8] is Rattus norvegicus. Nature of the series: Downregulation of estradiol level in proestrus staged-female rat serum at 12.5 mg/kg, po administered once daily for 8 days and measured by radioimmunoassay method (reference value: 144 pmol/L). It counts as functional.
Series [9] has as its target T1, Alpha-1A adrenergic receptor (Homo sapiens) (UniProt P35348).
T1 sequence (whole entry): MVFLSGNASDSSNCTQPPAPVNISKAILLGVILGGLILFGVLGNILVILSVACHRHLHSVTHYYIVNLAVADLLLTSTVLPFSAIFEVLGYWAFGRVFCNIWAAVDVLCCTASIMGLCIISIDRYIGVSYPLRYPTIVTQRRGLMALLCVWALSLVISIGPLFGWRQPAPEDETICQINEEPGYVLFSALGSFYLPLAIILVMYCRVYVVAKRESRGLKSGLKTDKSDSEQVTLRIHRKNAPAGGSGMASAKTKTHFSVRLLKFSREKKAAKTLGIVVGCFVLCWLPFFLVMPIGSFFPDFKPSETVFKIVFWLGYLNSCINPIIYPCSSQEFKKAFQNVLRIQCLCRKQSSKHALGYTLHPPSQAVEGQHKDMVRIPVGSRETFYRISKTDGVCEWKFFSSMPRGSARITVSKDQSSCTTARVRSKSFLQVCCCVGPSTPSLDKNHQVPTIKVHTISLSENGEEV
The series can be described thus: Agonist activity at human alpha1A adrenergic receptor expressed in CHO-K1 cells at 10 uM by fluorimetric method relative to control. It counts as cell-based.

Series [10] concerns the target Kappa-type opioid receptor (Homo sapiens) (UniProt P41145). The series can be described thus: Antagonist activity at human kappa opioid receptor at 10 uM by Spectrophotometric method relative to control. More on the design: scale not given: the % may be the effect or the level left.
In series [11] the target is T2, Alpha-2A adrenergic receptor (Homo sapiens) (UniProt P08913).
T2 sequence (whole entry): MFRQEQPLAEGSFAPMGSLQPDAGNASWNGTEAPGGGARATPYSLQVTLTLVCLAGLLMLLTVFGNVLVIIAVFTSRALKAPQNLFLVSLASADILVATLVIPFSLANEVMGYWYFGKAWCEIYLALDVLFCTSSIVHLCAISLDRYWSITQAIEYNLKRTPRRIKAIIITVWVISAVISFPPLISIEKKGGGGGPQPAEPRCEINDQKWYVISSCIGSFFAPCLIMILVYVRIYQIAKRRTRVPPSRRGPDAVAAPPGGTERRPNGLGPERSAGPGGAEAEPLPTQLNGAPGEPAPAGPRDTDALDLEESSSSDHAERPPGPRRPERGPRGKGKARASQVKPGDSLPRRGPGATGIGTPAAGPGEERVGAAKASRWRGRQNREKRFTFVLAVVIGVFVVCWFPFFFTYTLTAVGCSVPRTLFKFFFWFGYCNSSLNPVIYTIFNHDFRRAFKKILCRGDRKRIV
Nature of the series: Antagonist activity at human alpha2A adrenergic receptor expressed in Chem-1 cells at 10 uM by fluorimetric method relative to control. It counts as cell-based. More on the design: scale not given: the % may be the effect or the level left.

Series [12] deals with T1, Alpha-1A adrenergic receptor (Homo sapiens). Nature of the series: Antagonist activity at human alpha1A adrenergic receptor expressed in CHO-K1 cells at 10 uM by fluorimetric method relative to control. The class given is cell-based. More on the design: scale not given: the % may be the effect or the level left.
Series [13] has as its target T3, Adenosine receptor A3 (Homo sapiens) (UniProt P0DMS8).
T3 sequence (whole entry): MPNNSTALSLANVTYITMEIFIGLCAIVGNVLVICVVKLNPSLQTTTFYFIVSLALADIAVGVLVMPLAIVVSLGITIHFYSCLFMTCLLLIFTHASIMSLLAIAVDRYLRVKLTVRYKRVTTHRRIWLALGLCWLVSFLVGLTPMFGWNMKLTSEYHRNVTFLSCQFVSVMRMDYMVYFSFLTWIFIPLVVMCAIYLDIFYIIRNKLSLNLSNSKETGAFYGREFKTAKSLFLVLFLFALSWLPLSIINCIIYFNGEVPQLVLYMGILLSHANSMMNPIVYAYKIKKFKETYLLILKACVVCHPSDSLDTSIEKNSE
The series can be described thus: Agonist activity at human A3 receptor expressed in CHO-K1 cells at 10 uM after 20 mins by HTRF assay relative to control. It counts as cell-based.

Series [14] addresses Histamine H3 receptor (Homo sapiens) (UniProt Q9Y5N1). Nature of the series: Antagonist activity at human histamine H3 receptor expressed in CHO-K1 cells at 10 uM after 10 mins by HTRF assay relative to control. It counts as cell-based. Also noted: scale not given: the % may be the effect or the level left.
The target of series [15] is Lutropin-choriogonadotropic hormone receptor (Rattus norvegicus, UniProt P16235). The series can be described thus: Antagonist activity at rat luteinizing hormone receptor expressed in rat ovary granulosa GLHR15 cell suspension assessed as reduction in agonist-induced cAMP production preincubated for 30 mins followed by agonist solution addition after 30 mins by cell based TR-FRET assay. The class given is functional.

The target of series [16] is 5-hydroxytryptamine receptor 6 (Homo sapiens) (UniProt P50406). Nature of the series: Agonist activity at human 5-HT6 receptor expressed in CHO-K1 cells at 10 uM after 30 mins by HTRF assay relative to control. It counts as cell-based.
Series [17] is described as follows: Chemical stability of the compound at pH 1 to 10 measured after 1 to 24 hrs by HPLC-UV method. The class given is physicochemical. The settings on record: buffer.
In series [18] the target is D(1A) dopamine receptor (Homo sapiens) (UniProt P21728). Nature of the series: Antagonist activity at human D1 receptor expressed in CHO-K1 cells at 10 uM after 30 mins HTRF assay relative to control. It counts as cell-based. Also noted: scale not given: the % may be the effect or the level left.
A short description of series [19]: Apparent permeability across basolateral to apical side in human Caco2 cells at 2 uM after 2 hrs by LC-MS/MS analysis. It counts as ADME, cell-based. As to conditions: Caco-2.
The target of series [20] is T3, Adenosine receptor A3 (Homo sapiens). The series can be described thus: Antagonist activity at human A3 receptor expressed in CHO-K1 cells at 10 uM after 20 mins by HTRF assay relative to control. The class given is cell-based. Also noted: scale not given: the % may be the effect or the level left.
The nature of series [21]: Dose normalized Cmax in Wistar rat at 0.5 mg/kg, iv after 2 to 72 hrs by LC-MS/MS analysis. The class given is ADME, organism-based. The settings on record: in vivo.

Chain of Lutropin-choriogonadotropic hormone receptor (P16235 whole entry): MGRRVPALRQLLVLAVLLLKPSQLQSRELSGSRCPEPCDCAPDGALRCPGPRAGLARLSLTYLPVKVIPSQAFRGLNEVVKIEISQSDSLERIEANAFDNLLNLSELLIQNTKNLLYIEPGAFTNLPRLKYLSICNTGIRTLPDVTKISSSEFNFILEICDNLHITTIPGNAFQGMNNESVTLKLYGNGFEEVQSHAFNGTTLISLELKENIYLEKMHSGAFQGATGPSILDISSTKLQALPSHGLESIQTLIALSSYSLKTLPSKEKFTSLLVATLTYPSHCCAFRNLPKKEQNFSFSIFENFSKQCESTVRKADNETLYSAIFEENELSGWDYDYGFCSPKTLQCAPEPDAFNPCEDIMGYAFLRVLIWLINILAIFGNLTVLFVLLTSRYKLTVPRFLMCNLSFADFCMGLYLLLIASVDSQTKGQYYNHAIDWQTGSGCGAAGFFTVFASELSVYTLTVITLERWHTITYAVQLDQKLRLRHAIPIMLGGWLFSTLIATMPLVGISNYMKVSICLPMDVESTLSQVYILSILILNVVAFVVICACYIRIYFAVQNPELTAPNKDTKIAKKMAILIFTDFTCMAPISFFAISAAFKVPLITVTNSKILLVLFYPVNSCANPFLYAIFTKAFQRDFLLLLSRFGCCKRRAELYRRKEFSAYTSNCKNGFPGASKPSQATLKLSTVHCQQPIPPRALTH
Chain of Cytochrome P450 1A2 (P05177 whole entry): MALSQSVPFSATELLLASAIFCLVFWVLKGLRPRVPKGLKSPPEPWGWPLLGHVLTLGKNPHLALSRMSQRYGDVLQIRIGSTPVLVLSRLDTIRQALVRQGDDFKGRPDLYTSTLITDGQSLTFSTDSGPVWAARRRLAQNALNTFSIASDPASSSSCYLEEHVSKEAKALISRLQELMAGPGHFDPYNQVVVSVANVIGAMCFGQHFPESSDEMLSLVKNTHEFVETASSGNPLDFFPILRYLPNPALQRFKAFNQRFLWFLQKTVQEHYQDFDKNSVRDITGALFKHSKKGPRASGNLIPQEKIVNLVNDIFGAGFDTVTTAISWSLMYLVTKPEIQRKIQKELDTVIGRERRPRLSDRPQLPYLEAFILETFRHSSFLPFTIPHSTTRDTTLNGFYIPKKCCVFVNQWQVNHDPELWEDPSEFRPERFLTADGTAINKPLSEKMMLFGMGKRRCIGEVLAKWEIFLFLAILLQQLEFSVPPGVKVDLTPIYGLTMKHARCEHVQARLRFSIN
Chain of Cytochrome P450 2C8 (P10632 whole entry): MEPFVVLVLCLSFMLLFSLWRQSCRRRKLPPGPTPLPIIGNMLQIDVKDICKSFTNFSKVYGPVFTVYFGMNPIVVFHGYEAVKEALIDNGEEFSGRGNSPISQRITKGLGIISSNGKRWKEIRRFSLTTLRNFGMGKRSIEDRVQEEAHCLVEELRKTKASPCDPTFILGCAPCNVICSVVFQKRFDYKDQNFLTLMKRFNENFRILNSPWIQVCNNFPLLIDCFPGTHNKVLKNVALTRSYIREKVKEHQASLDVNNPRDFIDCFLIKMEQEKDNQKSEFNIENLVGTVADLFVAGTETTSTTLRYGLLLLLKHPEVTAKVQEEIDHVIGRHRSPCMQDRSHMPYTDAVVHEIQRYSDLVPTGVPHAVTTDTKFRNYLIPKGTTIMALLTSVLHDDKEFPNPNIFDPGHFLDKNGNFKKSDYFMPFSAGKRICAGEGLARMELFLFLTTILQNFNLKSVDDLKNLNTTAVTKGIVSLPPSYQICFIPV
Chain of Histamine H3 receptor (Homo sapiens) (Q9Y5N1 whole entry): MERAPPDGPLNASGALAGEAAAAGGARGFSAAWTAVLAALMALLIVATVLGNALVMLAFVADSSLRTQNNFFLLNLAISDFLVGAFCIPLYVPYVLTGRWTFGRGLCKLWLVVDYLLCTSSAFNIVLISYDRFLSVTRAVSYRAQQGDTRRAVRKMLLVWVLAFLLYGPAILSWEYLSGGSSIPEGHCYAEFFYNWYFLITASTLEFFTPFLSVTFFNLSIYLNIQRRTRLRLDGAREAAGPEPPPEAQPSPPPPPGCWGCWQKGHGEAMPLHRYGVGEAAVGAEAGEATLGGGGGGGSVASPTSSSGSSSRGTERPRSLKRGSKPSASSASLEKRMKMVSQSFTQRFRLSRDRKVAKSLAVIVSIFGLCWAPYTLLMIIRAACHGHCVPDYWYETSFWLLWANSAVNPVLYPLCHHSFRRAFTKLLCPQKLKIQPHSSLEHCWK
Chain of Kappa-type opioid receptor (Homo sapiens) (P41145 whole entry): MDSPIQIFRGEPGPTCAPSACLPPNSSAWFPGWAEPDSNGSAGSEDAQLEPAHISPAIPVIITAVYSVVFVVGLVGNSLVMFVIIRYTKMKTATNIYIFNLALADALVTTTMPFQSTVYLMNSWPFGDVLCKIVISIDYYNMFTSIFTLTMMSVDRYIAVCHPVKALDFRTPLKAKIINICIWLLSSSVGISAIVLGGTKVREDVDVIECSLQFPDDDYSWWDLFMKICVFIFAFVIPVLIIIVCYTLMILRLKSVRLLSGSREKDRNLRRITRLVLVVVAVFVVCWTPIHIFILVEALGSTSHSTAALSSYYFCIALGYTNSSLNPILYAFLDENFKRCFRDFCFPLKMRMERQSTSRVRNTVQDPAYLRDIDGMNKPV
Chain of D(1A) dopamine receptor (Homo sapiens) (P21728 whole entry): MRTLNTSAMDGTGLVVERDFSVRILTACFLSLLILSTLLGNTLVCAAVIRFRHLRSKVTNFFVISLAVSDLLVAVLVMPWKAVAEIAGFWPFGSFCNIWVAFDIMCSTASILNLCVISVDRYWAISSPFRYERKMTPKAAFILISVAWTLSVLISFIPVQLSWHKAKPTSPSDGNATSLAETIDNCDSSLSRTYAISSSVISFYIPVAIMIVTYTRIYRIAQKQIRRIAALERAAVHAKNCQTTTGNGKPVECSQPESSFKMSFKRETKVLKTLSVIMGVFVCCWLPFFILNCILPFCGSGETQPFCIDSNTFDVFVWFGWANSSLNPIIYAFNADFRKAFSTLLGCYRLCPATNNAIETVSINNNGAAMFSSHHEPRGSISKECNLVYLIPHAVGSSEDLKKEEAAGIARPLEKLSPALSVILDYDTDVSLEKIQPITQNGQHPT
Chain of Beta-1 adrenergic receptor (Homo sapiens) (P08588 whole entry, looked up): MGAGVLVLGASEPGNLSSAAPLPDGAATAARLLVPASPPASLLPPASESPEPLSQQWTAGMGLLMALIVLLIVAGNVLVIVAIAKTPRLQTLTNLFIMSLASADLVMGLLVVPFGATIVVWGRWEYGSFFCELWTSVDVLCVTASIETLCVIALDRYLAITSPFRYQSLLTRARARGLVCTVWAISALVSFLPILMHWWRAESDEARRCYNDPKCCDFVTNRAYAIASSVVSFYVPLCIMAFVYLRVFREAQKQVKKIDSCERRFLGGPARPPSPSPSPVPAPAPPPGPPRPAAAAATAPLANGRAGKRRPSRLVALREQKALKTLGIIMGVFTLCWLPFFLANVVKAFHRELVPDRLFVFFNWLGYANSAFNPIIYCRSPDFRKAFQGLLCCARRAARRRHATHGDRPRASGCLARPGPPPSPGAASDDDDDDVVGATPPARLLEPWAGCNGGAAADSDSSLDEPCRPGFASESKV
Chain of 5-hydroxytryptamine receptor 2B (Homo sapiens) (P41595 whole entry): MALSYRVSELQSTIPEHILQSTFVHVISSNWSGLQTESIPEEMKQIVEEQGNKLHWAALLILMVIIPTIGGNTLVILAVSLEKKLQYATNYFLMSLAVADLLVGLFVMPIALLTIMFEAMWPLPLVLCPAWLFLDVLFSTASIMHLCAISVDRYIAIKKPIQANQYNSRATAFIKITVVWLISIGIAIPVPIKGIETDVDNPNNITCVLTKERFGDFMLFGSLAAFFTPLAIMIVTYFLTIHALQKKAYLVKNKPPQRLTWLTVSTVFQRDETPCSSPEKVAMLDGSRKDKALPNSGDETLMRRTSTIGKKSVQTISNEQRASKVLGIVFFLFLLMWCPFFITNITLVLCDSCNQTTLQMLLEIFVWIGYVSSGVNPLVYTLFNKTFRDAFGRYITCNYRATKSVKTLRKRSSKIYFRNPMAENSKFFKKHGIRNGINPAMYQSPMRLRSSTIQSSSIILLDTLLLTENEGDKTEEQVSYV
Chain of 5-hydroxytryptamine receptor 6 (Homo sapiens) (P50406 whole entry): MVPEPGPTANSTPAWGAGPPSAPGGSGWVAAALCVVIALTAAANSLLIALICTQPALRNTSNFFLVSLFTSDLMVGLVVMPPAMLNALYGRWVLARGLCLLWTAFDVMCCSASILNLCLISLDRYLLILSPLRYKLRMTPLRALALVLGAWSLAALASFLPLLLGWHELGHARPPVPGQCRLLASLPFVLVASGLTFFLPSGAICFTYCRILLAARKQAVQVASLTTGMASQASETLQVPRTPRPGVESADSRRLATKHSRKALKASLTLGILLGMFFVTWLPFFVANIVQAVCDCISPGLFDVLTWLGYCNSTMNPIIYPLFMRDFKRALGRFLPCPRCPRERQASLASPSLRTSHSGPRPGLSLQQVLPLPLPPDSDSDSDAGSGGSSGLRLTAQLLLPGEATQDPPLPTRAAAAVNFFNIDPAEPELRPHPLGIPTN

As a reminder, the pIC50 is the IC50 on a negative log10 scale, so that one unit is a factor of ten. As usually defined, the half-life is the time needed for the level to fall by half in the phase considered. By Papp A→B is commonly meant how fast a substance crosses the layer from the apical side. In general, Papp B→A refers to how fast a substance crosses the layer from the basolateral side. Take `O=C(Nc1ccc(Oc2ccc(F)cc2)cc1)N1CCc2ncccc2[C@@H]1c1ccc(Cl)cc1`: the values for the negative logarithm of the IC50 (pIC50) (against Cytochrome P450 1A2; against Cytochrome P450 2C8; in series [15]) were < 4.70, 6.15 and 7.64, respectively. Besides, the outcome with Rattus norvegicus [1] was Active. In addition, the results for the AUC/dose in series [2] and in series [7] were 9.4 kg·h/L and 7.8 kg·h/L, respectively. The molecule further had a half-life in [3] of 12 h. The Activity was < 70% in series [4]; < 70% in series [6]; 57 pmol/L in the series with Rattus norvegicus [8]; < 70% in [9]; < 70% in [10]; < 70% in [11]. In addition, the Activity in series [12], in [13], in [14], in series [16], in series [18] and in [20] was < 70% in each case. Moreover, the Papp A→B at 2 h, 2 µM in [5] turned out to be 1.5 ×10⁻⁶ cm/s. The Stability result in [17] is on record as “Stable”. In series [19], the Papp B→A at 2 h, 2 µM stood at 2 ×10⁻⁶ cm/s. The molecule further registered a Cmax/dose in series [21] of 0.97 kg/L.

For the molecule `O=C(Nc1cnc(Oc2ccc(F)cc2)nc1)N1CCc2ncccc2[C@@H]1c1ccc(F)cc1` [BAY-899], the pIC50 against Cytochrome P450 1A2 is < 4.70; against Cytochrome P450 2C8 it was 5.51; in series [15] it was 7.34. Also, the result in the series with Rattus norvegicus [1] was Active. Besides, the AUC/dose in series [2] came out at 2.5 kg·h/L; in [7], 2.7 kg·h/L. Moreover, the half-life in series [3] is 33 h. For the same molecule, the Activity is < 70% in series [4]; < 70% in series [6]; 54 pmol/L in the series with Rattus norvegicus [8]; < 70% in series [9]; < 70% in [10]; < 70% in series [11]. Besides, the Activity in series [12], in series [13], in [14], in series [16], in series [18] and in [20] was < 70% each time. Further, in [5], the apical-to-basolateral permeability (Papp A→B) at 2 h, 2 µM is 8.9 ×10⁻⁶ cm/s. The Stability entry in series [17] is reported as “Stable”. Also, the apparent permeability from basolateral to apical (Papp B→A) at 2 h, 2 µM in series [19] worked out at 9.5 ×10⁻⁶ cm/s. For the same molecule, the Cmax/dose in series [21] worked out at 0.28 kg/L.
